Numbers after ± are expanded uncertainties.
Details: Crystal; visual observation

Triple point temperature | Compound
325.7 ± 1.2 K | Nc1ccccc1I [2-iodoaniline]
332.35 ± 0.87 K | Nc1ccc(I)cc1 [4-iodoaniline]

— the NIST ThermoML archive (doi:10.1021/acs.jced.7b00840)
